The text below walks through data of patent US8372819B2, “Methods and compositions for targeting skip” (Salk Institute for Biological Studies, priority 2010, dated 2013).

Where a SMILES comes first, the peptide text is derived from it. The star is where a group is joined. Cbz = O=C(OCc1ccccc1)* Some results are limits rather than exact numbers.

The test system of assay [1] is Ser2-phosphorylated RNAPII. As to the kind of experiment: Immunoblot of Ser2-phosphorylated RNAPII in response to FP. In kind it is cell-based. The protocol: FIG. 8. Immunoblot detection of SKIP and Ser2-phosphorylated RNAPII in response to increasing levels of flavopiridol.
In contrast, levels of Ser2-phosphorylated RNAPII decline with exposure to much higher concentrations of FP (>100 nM).
Background: A western blot detects proteins with antibodies after separation by electrophoresis.

A further assay has as its system SKIP protein. Description: Immunoblot of endogenous SKIP protein in 293 cells exposed to FP. In kind it is cell-based. Conditions: 293 cells exposed for 18 hr. The protocol:
(§1) SKIP expression is blocked by Flavopiridol (FP), a CDK inhibitor currently in clinical trials. […] SKIP protein levels decline starting at lOnM FP, though mRNA levels are unaffected at 10 nM FP.

Another assay deals with SKIP mRNA. As to the kind of experiment: SKIP mRNA levels in 293 cells exposed to FP. In kind it is cell-based. Conditions: 10 nM FP. The protocol: as §1
The test system of the next assay is p21. As to the kind of experiment: Immunoblot of p21 protein in U2OS cells. In kind it is cell-based, human. Conditions: U2OS cells transfected with control or SKIP siRNA, proteasome inhibitor treatment. The source says: As observed for many essential proteins, depletion of SKIP by siRNA increases endogenous p53 levels. […] To assess whether SKIP plays a role in the normal p53 stress response, endogenous p53 was induced in two human cancer cell lines, U2OS (osteosarcoma) and HCT116 (colon cancer), using the chemotherapeutic DNA damage agents etoposide (U2OS cells) or doxorubicin (HCT116 cells). […] Consequently, PUMA expression was elevated in SKIP-depleted cells, and increased further with DNA damage (FIG. 1). In contrast, both basal and stress-induced p21 mRNA levels decreased in SKIP-depleted HCT116 or U2OS cells, compared with cells treated with a control siRNA, accompanied by a strong block to p21 protein expression, as detected by immunoblot (FIG. 1A, 1B, lanes 1-3 and 4-6). Similar results were obtained using two different SKIP siRNAs.
To determine whether SKIP might also affect p21 protein stability, the rate of p21 protein turnover was measured in SKIP knockdown cells in the absence of stress. Forty-eight hours after transfection with control or SKIP siRNA, U2OS cells were treated with cycloheximide (CHX) to prevent new protein synthesis, and the decay of endogenous p21 protein was measured.

Another assay concerns p21 mRNA. As to the kind of experiment: TGF-β induction of p21 mRNA in MDA-MB-231 cells (qRT-PCR). In kind it is cell-based, human. As to conditions: TGF-β 5 ng/mL. On the procedure:
FIG. 5. SKIP is required for Nutlin and TGF-β-induced p21 gene expression. (A, left) qRT-PCR analysis of p21 and PUMA mRNA levels. U2OS cells were transfected with control or SKIP siRNA for 48 h, and incubated in the presence or absence of Nutlin (10 μM) for 18 h. (Right, lanes 1-4) Protein lysates were subjected to immunoblot analysis. (B) qRT-PCR analysis of p21 mRNA levels. MDA-MB-231 cells were transfected with control or SKIP siRNA for 48 h, followed by incubation in the presence or absence of TGF-β (5 ng/mL) for the indicated times. (C, lanes 1-6) Immunoblot analysis of SKIP, Smad2/3, p53, p21, or GAPDH in cells transfected with control or SKIP siRNA for 48 h, followed by treatment with TGF-β (5 ng/mL) for the indicated times. (D, left) qRT-PCR analysis of p21 mRNA levels in HCT 116 p53^−/− cells, H1299 cells, HeLa cells and MDA-MB-231 cells transfected with control or SKIP siRNA for 48 h. (Right, lanes 1-8) Protein lysates were subjected to immunoblot analysis. All of the mRNA expression levels were normalized to GAPDH mRNA, and are represented as fold increase or decrease over untreated cells. Error bars represent the standard deviation obtained from three independent experiments. […]
(Quantitative PCR measures a nucleic acid by following its amplification.)

For assay [2], the target named is T1, SKIP (Ski-interacting protein), endogenous (human, UniProt Q13573 2-536).
T1 construct: Endogenous protein of human HCT116 nuclear extract (pull-downs) or U2OS whole-cell lysate (co-IP); also called SNW1; NCoA62
T1 sequence: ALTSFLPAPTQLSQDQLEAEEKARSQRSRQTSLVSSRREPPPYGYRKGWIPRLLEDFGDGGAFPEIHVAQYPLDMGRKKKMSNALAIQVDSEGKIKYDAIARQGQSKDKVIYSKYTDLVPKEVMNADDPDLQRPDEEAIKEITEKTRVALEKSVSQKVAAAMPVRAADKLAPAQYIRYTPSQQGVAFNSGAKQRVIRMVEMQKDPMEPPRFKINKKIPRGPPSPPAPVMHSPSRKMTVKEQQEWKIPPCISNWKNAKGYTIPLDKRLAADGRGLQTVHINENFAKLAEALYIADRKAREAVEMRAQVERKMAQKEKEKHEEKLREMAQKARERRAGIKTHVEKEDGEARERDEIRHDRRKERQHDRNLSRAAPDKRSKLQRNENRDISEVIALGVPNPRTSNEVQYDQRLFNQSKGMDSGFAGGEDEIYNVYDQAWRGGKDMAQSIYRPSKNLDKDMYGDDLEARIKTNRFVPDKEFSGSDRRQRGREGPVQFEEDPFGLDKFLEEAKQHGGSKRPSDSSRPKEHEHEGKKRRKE
As to the kind of experiment: co-immunoprecipitation with SKIP antibody from U2OS whole-cell lysate, Western blot. On the procedure:
The immune complexes were subjected to SDS-PAGE followed by immunoblotting with the secondary antibody. For RNA-IP experiments, cells were lysed in ice-cold NET-2 buffer (50 mM Tris-HCL at pH 7.4, 300 mM NaCl, 0.5% [vol/vol] Nonidet P-40, 1× complete protease inhibitors [Roche], 100 U/mL RNase OUT [Invitrogen]). The lysate was incubated with the indicated antibodies or control normal rabbit/mouse IgG on a rotator overnight at 4° C., followed by addition of protein A/G agarose (Invitrogen) for 2 h at 4° C. Beads were then washed four times using the NET-2 buffer. Immunoprecipitated RNA was then extracted using Trizol and reverse-transcribed with random hexamers. The resulting cDNA was analyzed with the indicated primer sets (Table 5).
Figure 4: FIG. 4. SKIP associates with unspliced p21 mRNA and recruits U2AF65. (A) Immunoblot analysis of the interaction between SKIP, U2AF35, and U2AF65 in GST pull-down experiments from HCT116 cell nuclear extract. (B) Total proteins were extracted from U2OS cells for coimmunoprecipitation. Immunoprecipitates were examined by Western blot using antibodies against SKIP, U2AF35, or U2AF65. (C) ChIP analysis of U2AF65 binding on the p21 and PUMA genes. […] ChIP-enriched DNA was quantified by qPCR with the indicated primers in FIG. 2A. […] Immunoprecipitated p21 mRNA was detected using qRT-PCR with the indicated primers.

In assay [3] the target is T1, SKIP (Ski-interacting protein), …. As to the kind of experiment: GST pull-down from HCT116 nuclear extract, Western blot. On the procedure: SST fusion constructs were expressed in BL21 *Escherichia coli* cells, and crude bacterial lysates were prepared by sonication in GST lysis buffer (25 mM Tris at pH 7.5, 150 mM NaCl, 1 mM EDTA, protease inhibitor). Approximately 10 μg of the appropriate GST fusion proteins was incubated with precleared HCT116 nuclear extract for 2 h at 4° C. The binding reaction was then added with 30 μL of glutathione-Sepharose beads and mixed for another 1 h at 4° C. The beads were washed four times with the above GST lysis buffer, separated on a 10% SDS-PACE, and analyzed by Western blotting.
Figure 4: FIG. 4. SKIP associates with unspliced p21 mRNA and recruits U2AF65. (A) Immunoblot analysis of the interaction between SKIP, U2AF35, and U2AF65 in GST pull-down experiments from HCT116 cell nuclear extract. (B) Total proteins were extracted from U2OS cells for coimmunoprecipitation. Immunoprecipitates were examined by Western blot using antibodies against SKIP, U2AF35, or U2AF65. (C) ChIP analysis of U2AF65 binding on the p21 and PUMA genes. U2OS cells were transfected with control or SKIP siRNA for 48 h, followed by treatment with vehicle or etoposide (20 μM) for 6 h. Protein extracts were immunoprecipitated with antibodies against U2AF65. ChIP-enriched DNA was quantified by qPCR with the indicated primers in FIG. 2A. […] Immunoprecipitated p21 mRNA was detected using qRT-PCR with the indicated primers.

For the molecule `CN1CC[C@H](c2c(O)cc(O)c3c(=O)cc(-c4ccccc4Cl)oc23)[C@H](O)C1` [FP, Flavopiridol], the “FP concentration at which levels of Ser2-phosphorylated RNAPII decline” value in assay [1] is reported as above 100 nM. The “FP concentration at which SKIP protein levels start to decline” value with SKIP protein is “lO”. In addition, in the assay with SKIP mRNA, the “SKIP mRNA levels” value is “unaffected”.
For `CC(C)C[C@@H](C=O)NC(=O)[C@H](CC(C)C)NC(=O)[C@H](CC(C)C)NC(=O)OCc1ccccc1` [MG132] (Cbz-Leu-Leu-Leu-aldehyde), the p21 protein levels result in the assay on p21 is “elevated p21 protein levels”.
For the molecule TGF-β, the “time of peak p21 mRNA levels after induction” value in the assay on p21 mRNA is reported as 4 h.

B1: U2AF35 (other, human, UniProt Q01081 2-240, looked up)
chain: AEYLASIFGTEKDKVNCSFYFKIGACRHGDRCSRLHNKPTFSQTIALLNIYRNPQNSSQSADGLRCAVSDVEMQEHYDEFFEEVFTEMEEKYGEVEEMNVCDNLGDHLVGNVYVKFRREEDAEKAVIDLNNRWFNGQPIHAELSPVTDFREACCRQYEMGECTRGGFCNFMHLKPISRELRRELYGRRRKKHRSRSRSRERRSRSRDRGRGGGGGGGGGGGGRERDRRRSRDRERSGRF
notes: Endogenous protein from human cancer cell lines; also called nuclear U2AF35
In the case of B1, the binding result in assay [2] is on record as “no binding”.

B2: GST-U2AF35 (other, UniProt Q01081 1-240, looked up)
chain: MAEYLASIFGTEKDKVNCSFYFKIGACRHGDRCSRLHNKPTFSQTIALLNIYRNPQNSSQSADGLRCAVSDVEMQEHYDEFFEEVFTEMEEKYGEVEEMNVCDNLGDHLVGNVYVKFRREEDAEKAVIDLNNRWFNGQPIHAELSPVTDFREACCRQYEMGECTRGGFCNFMHLKPISRELRRELYGRRRKKHRSRSRSRERRSRSRDRGRGGGGGGGGGGGGRERDRRRSRDRERSGRF
notes: not shown: glutathione-S-transferase (GST) fusion tag
Consider B2, for which the binding result in assay [3] is on record as “no binding”.
